The results in this text go back to ChEMBL document CHEMBL1134238, “Synthesis of metabolically blocked paclitaxel analogues” (Bioorg Med Chem Lett, 2001).

The test system of one assay is HCT-116. Description: Compound was tested for cytotoxicity against human colon tumor cell line (HCT116). It is filed as functional, cell-based.
In assay [1] the target is Tubulin alpha chain (Sus scrofa) (UniProt P02550). In words: Compound was tested in vitro for inhibition of tubulin polymerization, expressed as ratio to that obtained for paclitaxel. Particulars: Homo sapiens. It is filed as functional.
Chain of Tubulin alpha chain (Sus scrofa) (P02550 whole entry, looked up): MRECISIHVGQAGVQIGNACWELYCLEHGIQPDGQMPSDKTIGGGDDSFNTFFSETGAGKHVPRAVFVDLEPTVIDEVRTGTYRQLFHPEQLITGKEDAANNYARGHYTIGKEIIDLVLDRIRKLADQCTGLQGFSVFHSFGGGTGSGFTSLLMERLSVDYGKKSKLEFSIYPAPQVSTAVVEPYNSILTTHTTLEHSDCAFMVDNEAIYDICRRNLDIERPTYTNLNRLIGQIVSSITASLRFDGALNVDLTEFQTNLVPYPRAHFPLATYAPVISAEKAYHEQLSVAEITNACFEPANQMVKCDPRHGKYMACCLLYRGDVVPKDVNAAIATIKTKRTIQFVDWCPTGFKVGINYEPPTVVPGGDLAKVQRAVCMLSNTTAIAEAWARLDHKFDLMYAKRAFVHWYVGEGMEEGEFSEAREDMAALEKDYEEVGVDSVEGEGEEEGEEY
Assay [2] concerns M109. Description: Compound was tested in vivo against M109 using Madison murine lung carcinoma (M109) tumor model at 40 mg/kg. It is filed as functional, Mus musculus.
Assay [3] relates to M109. In words: Compound was tested in vivo against M109 using Madison murine lung carcinoma (M109) tumor model at 200 mg/kg. It is filed as functional, Mus musculus.
For assay [4], the system named is M109. In words: Compound was tested in vivo against M109 using Madison murine lung carcinoma (M109) tumor model at 32 mg/kg. It counts as functional, Mus musculus.

By IC50 is commonly meant the midpoint of a concentration-inhibition curve. Read a high IC50 as a need for much substance. Molecule `CC(=O)O[C@H]1C(=O)[C@@]2(C)C([C@H](OC(=O)c3ccccc3)[C@]3(O)C[C@H](OC(=O)[C@H](O)[C@@H](NC(=O)c4ccccc4)c4ccccc4)C(C)=C1C3(C)C)[C@]1(OC(C)=O)CO[C@@H]1[C@@H](Br)[C@@H]2O` (some centres undefined) returned an IC50 with HCT-116 of 2.6 nM. Moreover, the Tubulin polymerization in assay [1] stood at 1.1.

As a reminder, the T/C is the ratio of treated to control. In the assay on M109 [2], `CC(=O)O[C@H]1C(=O)[C@@]2(C)[C@H]([C@H](OC(=O)c3ccccc3)[C@]3(O)C[C@H](OC(=O)[C@H](O)[C@@H](NC(=O)c4ccccc4)c4ccccc4)C(C)=C1C3(C)C)[C@]1(OC(C)=O)CO[C@@H]1C[C@@H]2O` [PACLITAXEL] displayed a T/C of 215%. For the same molecule, the Tubulin polymerization in assay [1] is 1.

The molecule `CC(=O)O[C@H]1C(=O)[C@@]2(C)C([C@H](OC(=O)c3ccccc3)[C@]3(O)C[C@H](OC(=O)[C@H](O)[C@@H](NC(=O)c4ccccc4)c4ccccc4)C(C)=C1C3(C)C)[C@]1(OC(C)=O)CO[C@@H]1[C@@H](F)[C@@H]2O` (some centres undefined) came in with an IC50 in the assay with HCT-116 of 1.4 nM. Moreover, in assay [1], the Tubulin polymerization was determined as 1.

In the case of `CC(=O)O[C@H]1C(=O)[C@@]2(C)C([C@H](OC(=O)c3ccccc3)[C@]3(O)C[C@H](OC(=O)[C@H](O)[C@@H](NC(=O)OC(C)(C)C)c4ccccc4)C(C)=C1C3(C)C)[C@]1(OC(C)=O)CO[C@@H]1[C@@H](F)[C@@H]2O` (some centres undefined), in the assay on HCT-116, the IC50 came out at 0.2 nM. Further, in assay [1], the Tubulin polymerization is 0.6.

With `CC(=O)O[C@H]1C(=O)[C@@]2(C)C([C@H](OC(=O)c3ccccc3)[C@]3(O)C[C@H](OC(=O)[C@H](O)[C@@H](NC(=O)c4ccccc4)c4ccccc4)C(C)=C1C3(C)C)[C@]1(OC(C)=O)CO[C@@H]1[C@@H](Cl)[C@@H]2O` (some centres undefined), in the assay on HCT-116, the half-inhibitory concentration (IC50) was found to be 1.2 nM. For the same molecule, in the assay on M109 [3], the T/C stood at 203%. In assay [1], the Tubulin polymerization was 0.8.

`CC(=O)O[C@H]1C(=O)[C@@]2(C)C([C@H](OC(=O)c3ccccc3)[C@]3(O)C[C@H](OC(=O)[C@H](O)[C@@H](NC(=O)OC(C)(C)C)c4ccccc4)C(C)=C1C3(C)C)[C@]1(OC(C)=O)CO[C@@H]1C[C@@H]2O` (some centres undefined) came in with an IC50 in the assay on HCT-116 of 1.8 nM. In the assay on M109 [4], this molecule had a T/C of 177%. Also, the Tubulin polymerization in assay [1] was determined as 0.7.
